In PMC6271266, “Synthesis and Biological Evaluation of Liguzinediol Mono- and Dual Ester Prodrugs as Promising Inotropic Agents” (Molecules, 2014):
In brackets after ≈: the same amount, converted by molar mass.

What was measured:
[1] = Capacity factor (k') by HPLC (lipophilic index); format: physicochemical; settings: n = 3, mean ± SD
Experimental: According to the method described in the literature, the capacity factor (k') of the prodrugs was determined using high-performance liquid chromatography (HPLC). Retention times of each prodrug and LZDO were measured and k' values were calculated from the following equation: k' = (t' − t0)/t0(1) where t0 is the retention time of the uracil and t' is the retention time of each compound. All experiments were conducted in triplicate.

[2] = Partition coefficient, n-octanol / 50 mM phosphate buffer pH 7.4; format: physicochemical; settings: 1-octanol/phosphate buffer (7.4) at 25 °C, n = 3, mean ± SD; for logP: n-octanol/50 mM phosphate buffer, pH 7.4
Experimental: Partitioning studies were performed with n-octanol and 50 mM phosphate buffer solution (pH 7.4) following standard procedures described in the literature. All experiments were conducted in triplicate, and the determination of LZDO was also carried out as a reference. Meanwhile, ChemBioDraw Ultra 12.0 was used to determine the calculated log p values as reference to the observed values.

[3] = Aqueous solubility in 50 mM phosphate buffer pH 7.4; format: physicochemical; settings: for solubility at 24 h: thermodynamic from solid
Experimental: An excess of each prodrug was added to 5 mL of 50 mM phosphate buffer solution (pH 7.4), and shaken at 25 °C in a water bath to establish equilibration for 24 h. After the equilibration, the samples were filtered through a membrane filter (0.45 μm) and analyzed by HPLC. All experiments were conducted in triplicate.

[4] = Hydrolysis (chemical stability) in phosphate buffer pH 7.4; format: physicochemical; settings: buffer solution pH 7.4, 37 °C, n = 3, mean ± SD
Experimental: The chemical stabilities of the target products were analyzed by high-performance liquid chromatography (HPLC) and were calculated as the amount unchanged within 24 h in buffer solutions at pH 7.4.
Methanolic stock solutions of each compound were added to 10 mL of 50 mM phosphate buffer solution (pH 7.4). The resulting solution was placed in a constant shaker bath set at 37 °C and after 24 h, a 10 μL aliquot of reaction solution was taken and analyzed by HPLC [35]. All experiments were performed in triplicate.

[5] = Hydrolysis in 80% human plasma; format: in vitro ADME; settings: for half-life: human, 80% human plasma, pH 7.4, read-out: t1/2 (80% Human Plasma) (converted); for bioconversion to LZDO or monoester in human plasma: result in words
Experimental: (§1) For a rationally designed prodrug intended to prolong the half-life of the active moiety, the metabolic lability should be sufficient and continuous. Preliminary metabolic stability was assessed in human plasma and human liver microsomes The profile of disappearance of each prodrug followed a pseudo-first-order trend, and half-lives were calculated from the linear slopes of logarithmic plots of remaining prodrug over time.
A prodrug (100 μL, initial concentrations were 4.20–9.85 mM) in methanol was added to human plasma (1000 μL) diluted to 80% with 50 mM phosphate buffer solution (pH 7.4) and was placed in a constant shaker bath set. The resulting solution was subsequently incubated at 37 °C and at appropriate time intervals methanol (1 mL) containing caffeine as internal standard was added in order to deproteinize the serum. The sample was vortexed for 3 min, and then centrifuged for 5 min at 5000 g. 900 μL of clear supernatant was withdrawn and evaporated to remove the solvent. Before analysis by RP-HPLC, the samples were dissolved in methanol (200 μL), vortexed again for 5 min, and then centrifuged for 5 min at 12,000 g. All experiments were performed at least in triplicate.
(§2) Separation and quantitation of the releasing LZDO and the prodrugs were carried out using a HPLC procedure. The HPLC system was equipped with a Waters 2695 gradient pump, a Waters 2487 UV detector at 278 nm, and an Empower 2 data station. The analytical column for in vitro samples was a Boston Green ODS-AQ column (4.6 mm × 50 mm, 5 μm) and the injection volume was 10 μL. Gradient elution methods were performed with a flow rate at 1.0 mL/min on Boston Green ODS-AQ column maintained at 30 °C. The percentage of mobile phase consisting of methanol and water was varied to elute analytes (see Supplementary Material for details of the HPLC elution). The methods provided rapid analysis for quantifying LZDO, prodrug and internal standard simultaneously. When qualifying the releasing amount of LZDO, separate standard curves under specific analytic condition were prepared by spiking a known amount of LZDO and internal standard in blank matrix. Disappearance of each prodrug from in vitro samples was analyzed by taking the ratio of peak areas detected at sampling time to that at initial time. As for in vivo pharmacokinetic analysis, determinations only referred to LZDO and an Ultimate XB-C18 column (3.0 mm × 50 mm, 3 μm) with an injection volume of 2 μL was used. The flow rate on Ultimate XB-C18 column was 0.4 mL/min with a column temperature of 30 °C. The mobile phase consisted of methanol (A) and water (B). The initial mobile phase composition was 4% A/96% B and maintained for 8 min. After that the mobile phase composition was changed to 80% A/20% B over 4 min and held at that ratio for an additional 4 min. The mobile phase was returned to initial composition over 1 min and re-equilibrated for 3 min. For in vivo analytical samples, a separate standard curve was prepared using blank rat plasma and ranged from 0.39 to 50 μg/mL.

[6] = Metabolism in human liver microsomes; format: in vitro ADME; settings: for half-life: human, human liver microsomes, pH 7.4, read-out: t1/2 (Human Liver Microsomes) (converted); for bioconversion to LZDO or monoester in human liver microsomes: result in words
Experimental: as §1
To the human liver microsomes which were dissolved in 50 mM phosphate buffer solution (pH 7.4) to a concentration of 1 mg/mL, a prodrug (100 μL, initial concentrations were 4.20–9.85 mM) in methanol and NADPH (100 μL, 1 mM) also in 50 mM phosphate buffer solution (pH 7.4) were successively added to initiate the incubation. The solution was then incubated at 37 °C and the subsequent procedures of sample preparations were similar to those in Section 3.5. All experiments were performed at least in triplicate.
as §2

[7] = aqueous buffer, 50 mM phosphate buffer pH 7.4, 25 °C, 24 h, n = 3, mean ± SD
[8] = prodrug disappearance, from pseudo-first-order rate constant

Molecule	Capacity Factor [1]	logP [2]	solubility at 24 h [3, 7] [µg/mL]	% Unchanged at 24 h (pH 7.4) [4]	half-life [5, 8] [h]	half-life [6, 8] [h]	melting point [°C]	Log P [2]	bioconversion to LZDO or monoester in human plasma [5]	bioconversion to LZDO or monoester in human liver microsomes [6]	Solubility ([3]; 50 mM phosphate buffer pH 7.4, 25 °C, 24 h, n = 3, mean ± SD) [µg/mL]	solubility at 24 h ([3]; phosphate buffer, 25 °C, pH 7.4, aqueous buffer, as restated in conclusions) [µg/mL]	% Max of LZDO Released (80% Human Plasma) ([5]; maximum percentage of liguzinediol released at 6 h incubation, 37 °C) [%]	t1/2 (80% Human Plasma) [5, 8] [h]	% Max of LZDO Released (Human Liver Microsomes) ([6]; maximum percentage of liguzinediol released at 6 h incubation, 37 °C, NADPH) [%]	t1/2 (Human Liver Microsomes) [6, 8] [h]
Cc1nc(COC(=O)C(C)(C)C)c(C)nc1COC(=O)C(C)(C)C [Compound D5, 3,6-Dimethyl-2,5-dipivaloyloxymethylpyrazine]	0.364 ± 0.039	2.5 ± 0.18	29.9 ± 1.36 (≈ 0.0889 mM)	96.1 ± 0.2%	3.4 ± 0.4	3.2 ± 0.3	80 to 82	–	–	–	–	–	–	–	–	–
CCCCCCCCCCCC(=O)OCc1nc(C)c(COC(=O)CCCCCCCCCCC)nc1C [Compound D12, 2,5-Didodecanoyloxymethyl-3,6-dimethylpyrazine]	1.640 ± 0.032	3.77 ± 0.21	–	99.8 ± 0.5%	7.9 ± 1	7.9 ± 0.9	55 to 56	–	–	–	–	–	–	–	–	–
Cc1nc(CO)c(C)nc1CO [Liguzinediol, 2,5-Dihydroxymethyl-3,6-dimethylpyrazine]	0.100 ± 0.004	-1.12 ± 0.11	224000 (≈ 1330 mM)	–	–	–	–	–	–	–	–	–	–	–	–	–
CCCCCCCCCCCCCCCC(=O)OCc1nc(C)c(CO)nc1C [Compound M16, 3,6-Dimethyl-2-hexadecanoyloxymethyl-5-hydroxymethylpyrazine]	0.834 ± 0.012	3.25 ± 0.13	–	99.4 ± 0.4%	3.3 ± 0.6	3.3 ± 0.7	60 to 62	–	–	–	–	–	–	–	–	–
CCCCCCCCCCCCCCCC(=O)OCc1nc(C)c(COC(=O)CCCCCCCCCCCCCCC)nc1C [Compound D16, 2,5-Dihexadecanoyloxymethyl-3,6-dimethylpyrazine]	3.911 ± 0.042	–	–	stable ^c	–	–	74 to 75	thoroughly partitioned into n-octanol	no bioconversion	no bioconversion	–	–	–	–	–	–
Cc1nc(COC(=O)C(C)(C)C)c(C)nc1CO [Compound M5, 3,6-Dimethyl-5-hydroxymethyl-2-pivaloyloxymethylpyrazine]	0.210 ± 0.020	1.33 ± 0.1	–	98.9 ± 0.3%	2.6 ± 0.1	5.1 ± 0.2	66 to 67	–	–	–	8000 ± 350 (≈ 31.7 mM)	8000 (≈ 31.7 mM)	–	–	–	–
3,6-Dimethyl-5-hydroxy-2-octadecanoyloxymethylpyrazine [Compound M18]	1.055 ± 0.061	–	–	98.2 ± 0.6%	–	–	–	3.38 ± 0.20	–	–	–	–	15.6 ± 1.6	9.6 ± 1.1	15.9 ± 1.2	9.5 ± 0.9
CCCCCCCCCC(=O)OCc1nc(C)c(COC(=O)CCCCCCCCC)nc1C [Compound D10, 2,5-Didecanoyloxymethyl-3,6-dimethylpyrazine]	1.068 ± 0.057	2.87 ± 0.16	–	98.7 ± 0.4%	4.2 ± 0.4	4.1 ± 0.5	46 to 47	–	–	–	–	–	–	–	–	–
CCCCCCCCCCCCCCCCCC(=O)OCc1nc(C)c(COC(=O)CCCCCCCCCCCCCCCCC)nc1C [Compound D18, 3,6-Dimethyl-2,5-dioctadecanoyloxymethylpyrazine]	6.134 ± 0.084	–	–	stable ^c	–	–	75 to 76	thoroughly partitioned into n-octanol	no bioconversion	no bioconversion	–	–	–	–	–	–
CCCCCCCCCC(=O)OCc1nc(C)c(CO)nc1C [Compound M10, 2-Decanoyloxymethyl-3,6-dimethyl-5-hydroxymethylpyrazine]	0.400 ± 0.015	2.48 ± 0.04	8.89 ± 0.21 (≈ 0.0276 mM)	98.9 ± 0.3%	2.3 ± 0.2	2.1 ± 0.6	31 to 32	–	–	–	–	–	–	–	–	–
CCCCCCCCCCCC(=O)OCc1nc(C)c(CO)nc1C [Compound M12, 3,6-Dimethyl-2-dodecanoyloxymethyl-5-hydroxymethylpyrazine]	0.514 ± 0.012	3.12 ± 0.15	2.23 ± 0.11 (≈ 0.00636 mM)	99.7 ± 0.2%	2.6 ± 0.5	2.2 ± 0.1	40 to 41	–	–	–	–	–	–	–	–	–
